Assay results: ChEMBL document CHEMBL3745672, “Novel compounds reducing IRS-1 serine phosphorylation for treatment of diabetes” (Bioorg Med Chem Lett, 2016)
The source made the active and inactive calls. The calls are words filed in the database; no cut-off is given here.

Experiments:
[1] = molecular target: T1, Mitogen-activated protein kinase 8 (Homo sapiens, UniProt P45983); assay: Inhibition of JNK1 (unknown origin) expressed in HEK293 cells assessed as anisomycin-induced JNK phosphorylation at 10 uM incubated for 30 mins by Western blot analysis relative to anisomycin; format: cell-based; parameters: scale not given: the % may be the effect or the level left
T1 sequence (P45983 whole entry): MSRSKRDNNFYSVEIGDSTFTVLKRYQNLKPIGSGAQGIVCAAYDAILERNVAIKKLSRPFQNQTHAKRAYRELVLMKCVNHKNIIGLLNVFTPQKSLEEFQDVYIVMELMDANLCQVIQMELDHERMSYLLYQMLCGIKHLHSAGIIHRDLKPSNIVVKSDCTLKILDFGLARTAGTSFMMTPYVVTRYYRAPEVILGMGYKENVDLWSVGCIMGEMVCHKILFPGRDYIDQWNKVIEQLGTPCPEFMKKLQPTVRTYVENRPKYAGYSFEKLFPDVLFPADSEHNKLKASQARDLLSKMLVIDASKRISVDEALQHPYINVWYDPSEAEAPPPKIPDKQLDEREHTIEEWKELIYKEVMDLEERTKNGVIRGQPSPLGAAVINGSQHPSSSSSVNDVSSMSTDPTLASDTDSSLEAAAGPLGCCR

[2] = molecular target: T1, Mitogen-activated protein kinase 8; assay: Inhibition of JNK1 (unknown origin) expressed in HEK293 cells assessed as anisomycin-induced IRS-1(Ser307) phosphorylation at 10 uM incubated for 30 mins by Western blot analysis relative to anisomycin; format: cell-based; parameters: scale not given: the % may be the effect or the level left
[3] = molecular target: T1, Mitogen-activated protein kinase 8; assay: Inhibition of JNK1 (unknown origin) expressed in HEK293 cells assessed as anisomycin-induced c-Jun phosphorylation at 10 uM incubated for 30 mins by Western blot analysis relative to anisomycin; format: cell-based; parameters: scale not given: the % may be the effect or the level left
[4] = molecular target: T1, Mitogen-activated protein kinase 8; assay: Inhibition of JNK1 (unknown origin)
HEK293 = assay: Cytotoxicity against HEK293 after 24 hrs by CellTiter-Glo luminescent cell viability assay; format: cell-based; details: Homo sapiens, HEK293, 24 h
[5] = molecular target: Mitogen-activated protein kinase 8 (Rattus norvegicus) (UniProt P49185); assay: Inhibition of JNK1 phosphorylation in rat RINm5F cells assessed as suppression of albumin-conjugated palmitate-induced IRS-1 Ser307 phosphorylation incubated for 8 hrs; format: cell-based; parameters: concentration or dose not given beside the values; details: concentration not given here
Mitogen-activated protein kinase 8 (Rattus norvegicus), sequence (P49185 whole entry): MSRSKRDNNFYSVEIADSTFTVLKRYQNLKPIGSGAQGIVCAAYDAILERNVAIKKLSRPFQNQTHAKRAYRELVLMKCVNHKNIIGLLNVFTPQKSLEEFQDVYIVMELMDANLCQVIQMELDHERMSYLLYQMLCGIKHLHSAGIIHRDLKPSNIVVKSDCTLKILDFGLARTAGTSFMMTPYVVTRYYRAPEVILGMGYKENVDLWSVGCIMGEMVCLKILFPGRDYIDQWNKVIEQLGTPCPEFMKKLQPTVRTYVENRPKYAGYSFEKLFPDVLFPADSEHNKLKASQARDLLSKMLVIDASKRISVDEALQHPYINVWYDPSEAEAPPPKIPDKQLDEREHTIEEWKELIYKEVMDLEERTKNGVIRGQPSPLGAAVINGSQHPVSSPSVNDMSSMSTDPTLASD

[6] = molecular target: Mitogen-activated protein kinase 8 (Rattus norvegicus) (UniProt P49185); assay: Inhibition of albumin-conjugated palmitate-induced JNK1/2 phosphorylation assessed as JNK phosphorylation level in rat RINm5F cells incubated for 8 hrs; format: cell-based

Row | SMILES | Activity [1] | Activity [2] | Activity [3] | IC50 [4] | IC50 (HEK293) | inhibition [5] | inhibition ([6]; concentration not given here) | inhibition [6]
1 | Cn1c(=O)c(Oc2ccc(F)cc2F)cc2cnc(N3CCCC(CO)C3)nc21 (stereo not given) | 21.1% | 79.4% | 103% | > 23 µM | > 30 µM | – | – | –
2 | Cn1c(=O)c(Oc2ccc(F)cc2F)cc2cnc(NC3CCCCCC3)nc21 | 84% | 0% | 119% | 6.73 µM | > 26.7 µM | – | – | –
3 | Cn1c(=O)c(Oc2c(Cl)cccc2Cl)cc2cnc(N3CCCC(O)C3)nc21 (stereo not given) | 36.2% | 93.6% | 133% | > 23 µM | > 30 µM | – | – | –
4 | Cn1c(=O)c(Oc2ccc(F)cc2F)cc2cnc(NC3CCNCC3)nc21 | 81% | 0% | 119% | 10.9 µM | > 30 µM | – | – | –
5 | Cn1c(=O)c(Oc2c(Cl)cccc2Cl)cc2cnc(Nc3ccc(N4CCCCC4)cc3)nc21 | 129% | 46.3% | 108% | > 23 µM | > 30 µM | – | – | –
6 | Cn1c(=O)c(Oc2c(Cl)cccc2Cl)cc2cnc(N3CCCCC3CO)nc21 (stereo not given) | 110% | 110% | 118% | > 23 µM | > 30 µM | – | – | –
7 | Cn1c(=O)c(Oc2c(Cl)cccc2Cl)cc2cnc(N3CCC(O)C3)nc21 (stereo not given) | 74.5% | 74.5% | 82.5% | > 23 µM | > 30 µM | – | – | –
8 | CCOC(=O)N1CCC(Nc2ncc3cc(Oc4ccc(F)cc4F)c(=O)n(C)c3n2)CC1 | – | 0% | 42% | 2.75 µM | > 30 µM | – | – | –
9 | Cn1c(=O)c(Oc2ccc(F)cc2F)cc2cnc(N3CCC(O)CC3)nc21 | 122% | 124% | 131% | > 23 µM | > 30 µM | – | – | –
10 | Cn1c(=O)c(Oc2ccc(F)cc2F)cc2cnc(Nc3ccc(N4CCCC4)cc3)nc21 | 98.9% | 98.9% | 108% | > 23 µM | > 30 µM | – | – | –
11 | Cn1c(=O)c(Oc2c(Cl)cccc2Cl)cc2cnc(NC3CCCC3)nc21 | 108% | 8.18% | 115% | 19.3 µM | > 30 µM | – | – | –
12 | Cn1c(=O)c(Oc2ccc(F)cc2F)cc2cnc(NC(CCO)CCO)nc21 [PAMAPIMOD] | – | 14% | 94% | – | > 30 µM | – | – | –
13 | CC(C)Nc1ncc2cc(Oc3ccc(F)cc3F)c(=O)n(C)c2n1 | – | 15% | 81% | 4.22 µM | > 30 µM | – | – | –
14 | Cn1c(=O)c(Oc2c(Cl)cccc2Cl)cc2cnc(NCc3ccccn3)nc21 | 35.3% | 2.15% | 115% | > 23 µM | > 30 µM | – | – | –
15 | Cn1c(=O)c(Oc2c(Cl)cccc2Cl)cc2cnc(Nc3ccc(N4CCC(O)CC4)cc3)nc21 | 58.9% | 9.09% | 74% | > 23 µM | > 30 µM | 58% | 54% | –
16 | Cn1c(=O)c(Oc2ccc(F)cc2F)cc2cnc(NCCN3CCOCC3)nc21 | 96.1% | 26.7% | 102% | > 23 µM | > 30 µM | – | – | –
17 | Cn1c(=O)c(Oc2ccc(F)cc2F)cc2cnc(NCc3cccc(C(F)(F)F)c3)nc21 | 94.1% | 0% | 101% | > 23 µM | > 30 µM | – | – | –
18 | Cn1c(=O)c(Oc2ccc(F)cc2F)cc2cnc(NCCCNS(C)(=O)=O)nc21 | 52.9% | 0% | 73.5% | 2.77 µM | > 30 µM | 87% | – | inactive

Row | SMILES | Activity [1] | Activity [2] | Activity [3] | IC50 [4] | IC50 (HEK293) | inhibition [5] | inhibition ([6]; concentration not given here) | inhibition [6]
19 | Cn1c(=O)c(Oc2ccc(F)cc2F)cc2cnc(NC3CCCC3)nc21 | 40% | 0% | 66.5% | 5.93 µM | > 30 µM | 61% | – | inactive
20 | Cn1c(=O)c(Oc2c(Cl)cccc2Cl)cc2cnc(NCCc3ccccn3)nc21 | 81.6% | 14.3% | 116% | > 23 µM | > 30 µM | – | – | –
21 | Cn1c(=O)c(Oc2c(Cl)cccc2Cl)cc2cnc(N3CCCC(CO)C3)nc21 (stereo not given) | 99.3% | 99.3% | 103% | > 23 µM | > 30 µM | – | – | –
22 | NC(=O)c1ccccc1Nc1ccnc(Nc2cccc(O)c2)n1 | – | 97% | 104% | 0.17 µM | > 30 µM | – | – | –
23 | Cn1c(=O)c(Oc2ccc(F)cc2F)cc2cnc(NCCNS(C)(=O)=O)nc21 | 75.8% | 12.2% | 67.5% | 18.9 µM | > 30 µM | – | – | –
24 | Cn1c(=O)c(Oc2c(Cl)cccc2Cl)cc2cnc(N3CCC(O)CC3)nc21 | 96.3% | 40.5% | 99.1% | > 23 µM | > 30 µM | – | – | –
25 | Cn1c(=O)c(Oc2ccc(F)cc2F)cc2cnc(N3CCCC(O)C3)nc21 (stereo not given) | 38.1% | 88.7% | 104% | > 23 µM | > 30 µM | – | – | –
26 | Cn1c(=O)c(Oc2ccc(F)cc2F)cc2cnc(N3CCC(CO)CC3)nc21 | 91.6% | 102% | 121% | > 23 µM | > 30 µM | – | – | –
27 | Cn1c(=O)c(Oc2ccc(F)cc2F)cc2cnc(NCc3ccccn3)nc21 | 68.2% | 68.2% | 86.2% | > 23 µM | > 30 µM | – | – | –
28 | Cn1c(=O)c(Oc2ccc(F)cc2F)cc2cnc(N3CCC(O)C3)nc21 (stereo not given) | 131% | 51.1% | 111% | > 23 µM | > 30 µM | – | – | –
29 | Cn1c(=O)c(Oc2ccc(F)cc2F)cc2cnc(NC3CCCCC3)nc21 | 37.6% | 0% | 32.4% | 16.1 µM | 14 µM | 93% | 59% | –
30 | O=C(O)c1ccccc1Nc1ccnc(Nc2cccc(O)c2)n1 | – | 161% | 88% | – | > 30 µM | – | – | –
31 | Cn1c(=O)c(Oc2c(Cl)cccc2Cl)cc2cnc(NCCN3CCOCC3)nc21 | 139% | 71.3% | 114% | 27.1 µM | > 30 µM | – | – | –
32 | Cn1c(=O)c(Oc2c(Cl)cccc2Cl)cc2cnc(NC3CC3)nc21 | 96.1% | 14.7% | 128% | 14.9 µM | > 30 µM | – | – | –
33 | O=C(O)c1ccccc1Nc1ccnc(Nc2cccc(F)c2)n1 | – | 69% | 46% | 0.05 µM | > 30 µM | – | – | –
34 | Cn1c(=O)c(Oc2c(Cl)cccc2Cl)cc2cnc(Nc3ccc(N4CCCC4)cc3)nc21 | 136% | 165% | 104% | > 23 µM | > 30 µM | – | – | –
35 | Cn1c(=O)c(Oc2ccc(F)cc2F)cc2cnc(NC3CC3)nc21 | 174% | 2.61% | 142% | 7.17 µM | > 30 µM | – | – | –
36 | Cn1c(=O)c(Oc2c(Cl)cccc2Cl)cc2cnc(N3CCC(CO)CC3)nc21 | 119% | 127% | 149% | > 23 µM | > 30 µM | – | – | –
